Values of other authors in patent US10722518B2, “Oxazine derivative for use in the treatment or prevention of cerebral amyloid angiopathy” (Novartis AG, priority 2016, dated 2020).

System: APP23 mice
Conditions: aged APP23 mice treated for three months; cited from earlier work

For Cc1cc(C#N)cnc1C(=O)Nc1ccc(F)c([C@]2(C)CO[C@@](C)(C(F)(F)F)C(N)=N2)c1 [NB360], which “effect on CAA-related microhaemorrhage (volumetric MRI)” value is on record?
The value was “no effect”.
